This assay addresses Plasmodium falciparum protein kinase 6 (PK6, PF3D7_1337100) (UniProt Q8IDW1). Put plainly: PfPK6 kinase inhibitors, biochemical, TCAMS library (AID 1159586). Particulars: recombinant PfPK6, Kinase-Glo ATP depletion luminescence.

Sequence of Plasmodium falciparum protein kinase 6 (PK6, PF3D7_1337100) (Q8IDW1 1-305): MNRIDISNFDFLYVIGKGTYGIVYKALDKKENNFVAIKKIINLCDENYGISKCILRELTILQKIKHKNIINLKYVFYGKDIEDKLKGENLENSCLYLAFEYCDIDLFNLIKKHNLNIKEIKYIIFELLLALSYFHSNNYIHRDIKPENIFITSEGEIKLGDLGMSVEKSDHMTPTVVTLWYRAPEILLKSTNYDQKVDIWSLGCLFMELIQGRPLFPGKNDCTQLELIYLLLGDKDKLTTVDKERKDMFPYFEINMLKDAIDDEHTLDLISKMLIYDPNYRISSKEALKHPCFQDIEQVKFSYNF

On to `Cn1c(=O)c(-c2c(Cl)cccc2Cl)cc2cnc(Nc3ccc(N4CCOCC4)cc3)nc21`, for which the IC50 was 145 nM.

With `O=C(Nc1cccc(-c2nn3ccccc3c2-c2ccnc(Nc3ccc(NCCCN4CCOCC4)c(F)c3)n2)c1)c1c(F)cccc1F`, the IC50 is 580 nM.

With `COc1c(CN2CCCC2)cccc1-c1cc2c(-c3ccc(C(=O)O)c(C(C)C)c3)ccnc2[nH]1`, the IC50 was 541 nM.

Consider `NS(=O)(=O)c1cccc(Nc2nccc(-c3cnn4ncccc34)n2)c1`, for which the concentration for half-maximal inhibition (IC50) is 246 nM.

As to `CN(c1ccc2c(c1)nc(NCc1ccccc1)n2C)c1ccnc(Nc2ccc(CS(C)(=O)=O)cc2)n1`, the concentration for half-maximal inhibition (IC50) was 464 nM.

`CCN(CC)CCCOc1ccc(Nc2nccc(-c3c(-c4cccc(NC(=O)c5c(F)cccc5F)c4)nn4ccccc34)n2)cc1F`: the 50% inhibitory concentration (IC50) was 302 nM.

Take `CNC(=O)c1ccccc1Nc1nc(Nc2ccc(N3CCN(C)CC3)nc2)ncc1C`: the IC50 is 143 nM.

`Nc1ncnc2occ(-c3ccc(NC(=O)Nc4cc(C(F)(F)F)ccc4F)cc3)c12`: the IC50 was 335 nM.

For `COc1ccc(Nc2ncc(C#N)c(Nc3ccccc3C(N)=O)n2)cc1N1CCN(C)CC1`, the half-maximal inhibitory concentration (IC50) is 61 nM.

For the compound `Cn1cc(-c2ccnc3[nH]c(-c4cccc(CNC5CCC(O)CC5)c4)cc23)cn1` (centres undefined), the IC50 was 177 nM.

Turning to `C(=N\Nc1nccc2sc(-c3ccccc3)cc12)/c1cccnc1`, the IC50 is 278 nM.

On to `Cc1cc(Nc2nc(Nc3cccc(Cl)c3)nc3ccccc23)n[nH]1`, for which the IC50 was 151 nM.

Consider `CN(C)Cc1cccc(-c2cc3c(-c4cnn(C)c4)c(Cl)cnc3[nH]2)c1`, for which the IC50 is 128 nM.

For `CNC(=O)c1ccccc1Nc1nc(Nc2ccc(N3CCOCC3)cc2)ncc1Cl`, the IC50 is 42 nM.

With `CN(C)CC(O)COc1ccc(Nc2ncc([N+](=O)[O-])c(Nc3ccccc3O)n2)cc1` (centres undefined), the half-inhibitory concentration (IC50) is 67 nM.

As to `CC(=O)Nc1ccc(Nc2ncc([N+](=O)[O-])c(Nc3ccccc3C(N)=O)n2)cc1`, the IC50 was 128 nM.

Turning to `CS(=O)(=O)Cc1ccc(Nc2nccc(N3CCCc4cc(NC(=O)Nc5cccc(C(F)(F)F)c5)ccc43)n2)cc1`, the IC50 was 385 nM.

Regarding `NC(=O)c1ccccc1Nc1nc(Nc2cccc(N3CCN(CCO)CC3)c2)ncc1Cl`, the IC50 is 80 nM.

Consider `O=S1(=O)NCc2ccc(Nc3nccc(Nc4ccc5c(cnn5Cc5ccccc5)c4)n3)cc21`, for which the IC50 is 265 nM.

Take `CS(=O)(=O)Cc1ccc(Nc2nccc(-c3c(-c4cccc(NC(=O)C5CCCCC5)c4)nn4ncccc34)n2)cc1`: the IC50 is 139 nM.

Regarding `COc1cccc(-n2ncc3c(N/N=C/c4ccc(CN(C)CCN(C)C)cc4)ncnc32)c1`, the IC50 is 58 nM.

On to `CN(c1ccc(NC(=O)Nc2cc(C(C)(C)C)on2)cc1)c1ccnc(NCCN2CCOCC2)n1`, for which the IC50 was 375 nM.

In the case of `CS(=O)(=O)Cc1ccc(Nc2ncc(Cl)c(Nc3cccnc3C(N)=O)n2)cc1`, the IC50 is 691 nM.

With `CC(c1cccc(Nc2nccc(-c3c(-c4cccc(NC(=O)c5c(F)cccc5F)c4)nn4ncccc34)n2)c1)S(C)(=O)=O` (centres undefined), the IC50 was 375 nM.

Consider `N=C(N)c1ccc(Nc2nc(Nc3ccc(-c4ccccc4)cc3)ncc2[N+](=O)[O-])cc1`, for which the IC50 is 164 nM.

For the compound `CC(=O)Nc1nc(C)c(-c2csc(Nc3ccc(Cl)cc3)n2)s1`, the half-inhibitory concentration (IC50) was 95 nM.

Consider `CN(c1ccc(NC(=O)Nc2cc(C(F)(F)F)ccc2F)cc1)c1ccnc(NCCN2CCOCC2)n1`, for which the 50% inhibitory concentration (IC50) is 520 nM.

Regarding `COc1ccc(Nc2ncc(OC)c(Nc3ccccc3C(N)=O)n2)cc1N1CCN(C)CC1`, the IC50 is 270 nM.

As to `N=C(N)c1ccc(Nc2nccc(Nc3nc(-c4ccccc4)cs3)n2)cc1`, the IC50 is 413 nM.

Turning to `CC(=O)Nc1cccc(Nc2nccc(-c3c(-c4cccc(NC(=O)c5c(F)cccc5F)c4)nn4ncccc34)n2)c1`, the half-inhibitory concentration (IC50) is 144 nM.

As to `Cc1ccc(Nc2nc3cc(Nc4ccnc(Nc5cccc(CS(C)(=O)=O)c5)n4)ccc3o2)cc1`, the IC50 is 229 nM.

Take `CS(=O)(=O)Cc1cccc(Nc2ncc(Cl)c(Nc3cccnc3C(N)=O)n2)c1`: the 50% inhibitory concentration (IC50) was 74 nM.

In the case of `NCCNC(=O)c1ccc(-c2cnc3[nH]cc(-c4ccc(C(N)=O)cc4)c3c2)cc1`, the half-maximal inhibitory concentration (IC50) was 931 nM.

Regarding `CNC(=O)c1ccccc1Nc1nc(Nc2cccc(CS(C)(=O)=O)c2)ncc1C`, the IC50 is 133 nM.

As for `Cc1ccc(S(=O)(=O)Nc2ccc(Nc3nccc(Nc4cccc5[nH]ncc45)n3)cc2)cc1`, the IC50 was 823 nM.

Turning to `CN1CCN(c2ccc(Nc3ncc(C#N)c(Nc4ccccc4C(N)=O)n3)cc2)CC1`, the IC50 was 89 nM.

In the case of `CN1CCN(c2ccc(Nc3nccc(-c4cnn5ncccc45)n3)cc2Cl)CC1`, the IC50 was 179 nM.

On to `O=C(Cc1ccc(Nc2nccc(Nc3cccc4[nH]ncc34)n2)cc1)Nc1ccc(C(F)(F)F)cc1`, for which the IC50 is 167 nM.

In the case of `CN1CCC(NC(=O)c2cccc(Nc3cc(Nc4cccc(Br)c4)ncn3)c2)CC1`, the half-inhibitory concentration (IC50) was 602 nM.

Turning to `CCNC(=O)Nc1ccc(N(C)c2ccnc(Nc3ccc(CS(C)(=O)=O)cc3)n2)cc1`, the IC50 is 269 nM.

With `COc1ccc(Nc2ncc(Cl)c(Nc3cccnc3C(N)=O)n2)cc1N1CCN(C)CC1`, the IC50 is 86 nM.

On to `N#Cc1cnc(Nc2ccc(Oc3ccccc3)cc2)nc1Nc1cccc(S(N)(=O)=O)c1`, for which the IC50 is 201 nM.

Consider `CCN(CC)CCNc1nccc(N(C)c2ccc(NC(=O)Nc3cc(C(F)(F)F)ccc3F)cc2)n1`, for which the IC50 was 917 nM.

On to `COc1c(CN2CCOCC2)cccc1-c1cc2c(-c3ccc(C(=O)O)c(C(C)C)c3)ccnc2[nH]1`, for which the concentration for half-maximal inhibition (IC50) was 695 nM.

`CS(=O)(=O)Cc1ccc(Nc2nccc(-c3c(-c4cccc(C(=O)Nc5c(F)cccc5F)c4)nn4ccccc34)n2)cc1`: the half-inhibitory concentration (IC50) is 105 nM.

On to `Cn1cnc2c(Nc3ccncc3)nc(-c3ccc4c(c3)OCO4)nc21`, for which the IC50 was 500 nM.

As to `CCN(CC)CCNC(=O)c1ccc(Nc2ncc([N+](=O)[O-])c(Nc3ccccc3OC)n2)cc1`, the half-maximal inhibitory concentration (IC50) was 110 nM.

In the case of `Nc1ncc(-c2cccc(F)c2)cc1-c1nc2ccc(F)cc2[nH]1`, the IC50 is 206 nM.

As to `Cn1nc(-c2ccc(NC(=O)Nc3ccc4ccccc4c3)c(F)c2)c2cnc(NCCN3CCOCC3)nc21`, the IC50 was 860 nM.

In the case of `NCCNS(=O)(=O)c1ccc(-c2ccnc3[nH]c(-c4ccncc4)cc23)cc1`, the IC50 was 207 nM.

As to `CNC(=O)c1ccccc1Nc1nc(Nc2ccc(CCN3CCN(C)CC3)cc2)ncc1Cl`, the IC50 is 70 nM.

Consider `CN(c1ccc2c(c1)nc(NCc1ccc(F)cc1)n2C)c1ccnc(Nc2ccc(CS(C)(=O)=O)cc2)n1`, for which the IC50 was 844 nM.

Turning to `NS(=O)(=O)c1ccc(Nc2nccc(-c3c(-c4cccc(NC(=O)c5c(F)cccc5F)c4)nn4ccccc34)n2)cc1`, the 50% inhibitory concentration (IC50) was 140 nM.

`Cc1cc(Nc2ncc(C#N)c(Nc3ccccc3C(N)=O)n2)ccc1N1CCN(C)CC1`: the 50% inhibitory concentration (IC50) is 54 nM.

Consider `CCN(CC)CCCNc1nccc(N(C)c2ccc(NC(=O)Nc3cc(C(F)(F)F)ccc3F)cc2)n1`, for which the half-inhibitory concentration (IC50) was 705 nM.

For the compound `O=c1[nH]ccc2nc(N[C@@H]3CCCNC3)nc(Nc3ccc(S(=O)(=O)N4CCOCC4)cc3)c12`, the IC50 is 115 nM.

Regarding `CCN(CC)CCOc1ccc(Nc2ncc3cc(-c4c(Cl)cccc4Cl)c(=O)n(C)c3n2)cc1`, the IC50 is 350 nM.

`Cc1ccc(Nc2ccnc(Nc3ccc4c(c3)CS(=O)(=O)C4)n2)cc1O`: the half-inhibitory concentration (IC50) was 122 nM.

`Cc1cc(Nc2ncc(Cl)c(Nc3ccccc3C(N)=O)n2)n[nH]1`: the IC50 is 129 nM.

In the case of `C#CCNC(=O)c1ccc(-c2ccnc(Nc3cccc(CCCN4CCOCC4)c3)n2)s1`, the IC50 is 181 nM.

As to `CS(=O)(=O)Cc1ccc(Nc2nccc(-c3c(-c4cccc(NC(=O)c5c(F)cccc5F)c4)nn4ccccc34)n2)cc1`, the half-inhibitory concentration (IC50) was 276 nM.

Consider `COc1ccc(Nc2ncc3c(-c4cccc(NC(=O)Cc5ccc(O)cc5)c4)c[nH]c3n2)cc1OC`, for which the IC50 was 445 nM.

`CN(c1ccc(NC(=O)Nc2cccc(Cl)c2)cc1)c1ccnc(N)n1`: the concentration for half-maximal inhibition (IC50) is 402 nM.

Regarding `CC(=O)c1ccc(NC(=O)Nc2ccc(N(C)c3ccnc(Nc4cccc(CS(C)(=O)=O)c4)n3)cc2)cc1`, the IC50 is 138 nM.

The values are drawn from PubChem BioAssay AID1159586 (Gregory J. Crowther, 2016).
